In patent US6620822B1, “Fungicidal combinations of active substance” (priority 1999, dated 2003):

Columns and labels:
Assay type in all cases: in vivo
Sphaerotheca fuliginea = experiment: Sphaerotheca test (cucumber)/protective; settings: protective, single active compound, evaluation 10 days after inoculation
Phytophthora infestans = settings: tomato, protective, single active compound, application rate 5 g/ha, evaluation 3 days after inoculation
[1] = system: Erysiphe graminis f.sp. hordei; experiment: Erysiphe test (barley)/curative; settings: curative, single active compound, evaluation 7 days after inoculation

## Fc1ccc(Oc2ccnc3cc(Cl)cc(Cl)c23)cc1 [(I), 5,7-dichloro-4-(4-fluoro-phenoxy)-quinoline]
Sphaerotheca fuliginea; application rate 5 g/ha
  Efficacy in %: 57%
Sphaerotheca fuliginea; application rate 10 g/ha
  Efficacy in %: 63%
Phytophthora infestans
  Efficacy in %: 4%
[1]; application rate 6.25 g/ha
  Efficacy in %: 43%
[1]; application rate 25 g/ha
  Efficacy in %: 57%

## Cc1ccc(N(SC(F)(Cl)Cl)S(=O)(=O)N(C)C)cc1 [(III), N-dichloro-fluoro-methylthio-N′,N′-dimethyl-N-p-tolylsulfamide]
Sphaerotheca fuliginea; application rate 50 g/ha
  Efficacy in %: 0%

## CC(C)(C)C(O)C(Oc1ccc(Cl)cc1)n1cncn1 (stereo not drawn) [(IIa), 1-(4-chloro-phenoxy)-3,3-dimethyl-1-(1,2,4-triazol-1-yl)-butan-2-ol]
Sphaerotheca fuliginea; application rate 5 g/ha
  Efficacy in %: 63%
[1]; application rate 25 g/ha
  Efficacy in %: 93%

## CC(C)(C)C(O)C(Oc1ccc(-c2ccccc2)cc1)n1cncn1 (stereo not drawn) [(IIb), 1-(4-phenyl-phenoxy)-3,3-dimethyl-1-(1,2,4-triazol-1-yl)-butan-2-ol]
Sphaerotheca fuliginea; application rate 10 g/ha
  Efficacy in %: 27%

## CC1CNC(=S)[S][Zn][S]C(=S)N1 (stereo not drawn) [(IV), zinc propylene-1,2-bis-(dithiocarbamidate)]
Sphaerotheca fuliginea; application rate 50 g/ha
  Efficacy in %: 0%

## CC1(C(=O)Nc2ccc(O)c(Cl)c2Cl)CCCCC1 [(V)]
Sphaerotheca fuliginea; application rate 10 g/ha
  Efficacy in %: 0%

## Cc1ccc(C(C)NC(=O)C(NC(=O)OC(C)C)C(C)C)cc1 (stereo not drawn) [(VI)]
Sphaerotheca fuliginea; application rate 10 g/ha
  Efficacy in %: 0%
